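48-hour exposure; five concentrations; linearly interpolated endpoints. GI50 is the concentration that inhibits growth by half. TGI marks complete inhibition of growth.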

For one experiment, the system named is HCT-15 colon. The experiment is described as follows: NCI tumour cell line growth inhibition, 48 h.
`COc1ccc(-c2c3c(N)nc(-c4ccncc4)nc3nc3c2c(C)nn3-c2ccccc2)cc1`: the GI50 was more than 100 µM and the TGI is more than 100 µM.
With `COc1cccc(-n2ncc3c(N/N=C/c4ccc(C(=O)NCCN(C)C)cc4)ncnc32)c1`, the GI50 was 2.85 µM and the TGI amounted to 6.83 µM.
Molecule `O=c1/c(=C/c2ccccc2F)sc2nc3ccccc3n12` gave a TGI of more than 100 µM.
As to `CC1(C)CC(=O)c2c(C(F)(F)F)nn(-c3ccc(C(N)=O)c(NC4CCC(OC(=O)CN)CC4)c3)c2C1` (stereo not drawn), the GI50 was 0.12 µM and the TGI is more than 93.6 µM.
`O=C(NCCCCCCNC(=O)n1cc(F)c(=O)[nH]c1=O)NCCCOCCOCCOCCOCCOCCOCCOCCOCCOCCOCCOCCOCCOCCOCCOCCOCCOCCOCCOCCOCCOCCCNC(=O)C(O)C(O)C(O)C(O)CO` (stereo not drawn) gave a TGI of more than 100 µM.
`COc1cc(C2CC(c3ccc4c(c3)OCO4)=NN2C=O)cc(OC)c1OC` (stereo not drawn): the GI50 was 1.58 µM and the TGI was more than 100 µM.
`CCCC(=O)OC1C(C(O)CO)OC2OC(C)(C)OC21` (stereo not drawn): the TGI is more than 100 µM.
Same read-out and setting: the same measure for `Cc1ccc(N=Cc2ccc3c(c2)OCO3)cc1C`: more than 100 µM.
For `COC(=O)[C@H](C[C@H](Cc1ccccc1)NC(=O)c1csc([C@@H](C[C@H](C(C)C)N(C)C(=O)[C@@H](NC(=O)[C@H]2CCCCN2C)C(C)C)OC(C)=O)n1)NC(=O)OCc1ccccc1`, the GI50 was 0.00401 µM and the TGI was more than 9 µM.
Taken in the same sequence, the figures for `CCCCCCCCN=C(N)c1ccc(N2CCN(c3ccc(C(N)=NCCCCCCCC)cc3)CC2)cc1` were 1.79 µM and 7.2 µM.
On to `NNC(=O)/C(=C/c1ccc(Cl)cc1Cl)NC(=O)c1ccccc1`, for which the TGI was more than 100 µM.
`COc1cc(OC(C)=O)cc2c(OC(C)=O)ccc(OC(C)=O)c12` showed a TGI of more than 100 µM.
For `COc1ccc2c(c1)cn1c3ccc(O)cc3nc(N)c21`, the GI50 is 0.0585 µM and the TGI is 5.99 µM.
For `OC(c1cc(-c2ccccc2)nc2ccc(Cl)cc12)C1CCCCN1` (stereo not drawn), the GI50 was 1.84 µM and the TGI is 3.53 µM.
`CCc1ccccc1NC(=O)C(=O)CC(=O)c1sc(Nc2ccccc2)nc1C` registered a TGI of more than 100 µM.
As to `CC#C[C@]1(O)CC[C@H]2[C@@H]3CCC4=CC(=O)CCC4=C3[C@@H](c3ccc4c(c3)OCO4)C[C@@]21C`, the GI50 is 45.4 µM and the TGI amounted to 780 µM.
As to `COc1ccc(OC)c(/C=C2\SC(=S)NC2=O)c1`, the GI50 is 26.2 µM and the TGI came out at 93 µM.

The next experiment relates to M14 melanoma. The experiment is described as follows: NCI tumour cell line growth inhibition, 48 h.
In the case of `COc1ccc(-c2c3c(N)nc(-c4ccncc4)nc3nc3c2c(C)nn3-c2ccccc2)cc1`, the GI50 is 17.5 µM and the TGI is more than 100 µM.
For the molecule `COc1cccc(-n2ncc3c(N/N=C/c4ccc(C(=O)NCCN(C)C)cc4)ncnc32)c1`, the GI50 was 1.8 µM and the TGI is 5.55 µM.
In the case of `O=c1/c(=C/c2ccccc2F)sc2nc3ccccc3n12`, the TGI is more than 100 µM.
Consider `CC1(C)CC(=O)c2c(C(F)(F)F)nn(-c3ccc(C(N)=O)c(NC4CCC(OC(=O)CN)CC4)c3)c2C1` (stereo not drawn), for which the GI50 is 0.0608 µM and the TGI was 26.5 µM.
`O=C(NCCCCCCNC(=O)n1cc(F)c(=O)[nH]c1=O)NCCCOCCOCCOCCOCCOCCOCCOCCOCCOCCOCCOCCOCCOCCOCCOCCOCCOCCOCCOCCOCCOCCCNC(=O)C(O)C(O)C(O)C(O)CO` (stereo not drawn) yielded a TGI of more than 100 µM.
On to `COc1cc(C2CC(c3ccc4c(c3)OCO4)=NN2C=O)cc(OC)c1OC` (stereo not drawn), for which the GI50 was 1.3 µM and the TGI is more than 100 µM.
In turn, `CCCC(=O)OC1C(C(O)CO)OC2OC(C)(C)OC21` (stereo not drawn) registered a TGI of more than 100 µM.
On to `Cc1ccc(N=Cc2ccc3c(c2)OCO3)cc1C`, for which the TGI was more than 100 µM.
As to `COC(=O)[C@H](C[C@H](Cc1ccccc1)NC(=O)c1csc([C@@H](C[C@H](C(C)C)N(C)C(=O)[C@@H](NC(=O)[C@H]2CCCCN2C)C(C)C)OC(C)=O)n1)NC(=O)OCc1ccccc1`, the GI50 was less than 0.0009 µM and the TGI amounted to 0.365 µM.
For `CCCCCCCCN=C(N)c1ccc(N2CCN(c3ccc(C(N)=NCCCCCCCC)cc3)CC2)cc1`, the GI50 was 1.76 µM and the TGI was 6.68 µM.
Turning to `NNC(=O)/C(=C/c1ccc(Cl)cc1Cl)NC(=O)c1ccccc1`, the TGI is more than 100 µM.
Take `COc1cc(OC(C)=O)cc2c(OC(C)=O)ccc(OC(C)=O)c12`: the TGI was more than 100 µM.
Regarding `COc1ccc2c(c1)cn1c3ccc(O)cc3nc(N)c21`, the GI50 was 0.0798 µM and the TGI amounted to 4.98 µM.
In the case of `OC(c1cc(-c2ccccc2)nc2ccc(Cl)cc12)C1CCCCN1` (stereo not drawn), the GI50 was 1.87 µM and the TGI came out at 3.54 µM.
`CCc1ccccc1NC(=O)C(=O)CC(=O)c1sc(Nc2ccccc2)nc1C` showed a TGI of more than 100 µM.
`CC#C[C@]1(O)CC[C@H]2[C@@H]3CCC4=CC(=O)CCC4=C3[C@@H](c3ccc4c(c3)OCO4)C[C@@]21C`: the GI50 was 31 µM and the TGI was 154 µM.
Regarding `COc1ccc(OC)c(/C=C2\SC(=S)NC2=O)c1`, the GI50 was 30.7 µM and the TGI was more than 100 µM.

Another experiment concerns IGROV1 ovarian. The experiment is described as follows: NCI tumour cell line growth inhibition, 48 h.
On to `COc1ccc(-c2c3c(N)nc(-c4ccncc4)nc3nc3c2c(C)nn3-c2ccccc2)cc1`, for which the GI50 was 59.3 µM and the TGI was more than 100 µM.
On the same counts, the results for `COc1cccc(-n2ncc3c(N/N=C/c4ccc(C(=O)NCCN(C)C)cc4)ncnc32)c1` are 1.58 µM and 6.16 µM.
The molecule `O=c1/c(=C/c2ccccc2F)sc2nc3ccccc3n12` came in with a TGI of more than 100 µM.
As for `CC1(C)CC(=O)c2c(C(F)(F)F)nn(-c3ccc(C(N)=O)c(NC4CCC(OC(=O)CN)CC4)c3)c2C1` (stereo not drawn), the GI50 was 0.0422 µM and the TGI is more than 39.2 µM.
For `O=C(NCCCCCCNC(=O)n1cc(F)c(=O)[nH]c1=O)NCCCOCCOCCOCCOCCOCCOCCOCCOCCOCCOCCOCCOCCOCCOCCOCCOCCOCCOCCOCCOCCOCCCNC(=O)C(O)C(O)C(O)C(O)CO` (stereo not drawn), the TGI was more than 100 µM.
With `COc1cc(C2CC(c3ccc4c(c3)OCO4)=NN2C=O)cc(OC)c1OC` (stereo not drawn), the GI50 was 2.37 µM and the TGI is more than 100 µM.
With `CCCC(=O)OC1C(C(O)CO)OC2OC(C)(C)OC21` (stereo not drawn), the TGI is more than 100 µM.
On the same count and under the same terms, the same measure for `Cc1ccc(N=Cc2ccc3c(c2)OCO3)cc1C`: more than 100 µM.
For `COC(=O)[C@H](C[C@H](Cc1ccccc1)NC(=O)c1csc([C@@H](C[C@H](C(C)C)N(C)C(=O)[C@@H](NC(=O)[C@H]2CCCCN2C)C(C)C)OC(C)=O)n1)NC(=O)OCc1ccccc1`, the GI50 is 0.00119 µM and the TGI was more than 4.04 µM.

The values above are taken from PubChem BioAssay (NCI).
